According to PMC9967275, “Screening the Pathogen Box to Discover and Characterize New Cruzain and TbrCatL Inhibitors” (Pathogens, 2023):

Legend:
cruzain = cruzain (Trypanosoma cruzi, UniProt P25779); experiment: biochemical; settings: for Cruzain Inhibition 0’: 0’ (no pre-incubation); for Cruzain Inhibition 0’ / Cruzain Inhibition 10’: sheet Screening results; for Cruzain Inhibition 10’: 10’ (pre-incubation); for Cruzain 0’ Inhibition: 0’ (pre-incubation time); for Cruzain 0’ Inhibition / Cruzain 10’ Inhibition: sheet "Screening results"; for Cruzain 10’ Inhibition: 10’ (pre-incubation time)
cruzain, sequence (P25779 123-337 limits assumed): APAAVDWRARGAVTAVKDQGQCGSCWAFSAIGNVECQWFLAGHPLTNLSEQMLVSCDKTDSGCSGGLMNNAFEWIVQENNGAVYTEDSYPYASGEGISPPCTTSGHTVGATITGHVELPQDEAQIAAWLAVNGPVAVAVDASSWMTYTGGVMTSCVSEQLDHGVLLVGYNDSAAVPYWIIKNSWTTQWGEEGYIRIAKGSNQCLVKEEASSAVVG
Method: (§1) Allison Doak and Prof. Brian Shoichet (University of California San Francisco, San Francisco, CA, USA) and Prof. Conor Caffrey (University of California San Diego, San Diego, CA, USA) generously provided recombinant cruzain and TbrCatL, respectively. In vitro activity of proteases cruzain and TbrCatL was assayed as previously described. Briefly, enzyme activity was measured by monitoring the cleavage of the fluorogenic substrate […] (Z-FR-AMC) at 25 °C. Fluorescence was monitored at 340/440 nm (excitation/emission) over 5–7 min in a Synergy2 Biotek plate reader. […] DMSO and 1 μM E-64 were employed as negative and positive controls, respectively, in all assays. Two conditions were employed for both enzymes: 10′ pre-incubation of the enzyme in the presence of the compound (10′ inc) and no pre-incubation (0′). Reported values correspond to the mean and standard error of the mean (SEM) and all analyses were performed using GraphPad Prism 6.0.
(§2) For the initial screening, compounds were assayed at 5 μM. […] IC50 curves were obtained from a non-linear fit of at least seven distinct compound concentrations, in triplicate. Reported IC50 values are the mean and SEM of two independent measurements.

TbrCatL = target: T1, TbrCatL (Trypanosoma brucei rhodesiense, UniProt Q95PM0); experiment: TbrCatL enzymatic inhibition assay (cleavage of fluorogenic substrate Z-FR-AMC); type: biochemical; settings: for TbrCatL Inhibition 0’: 0’ (no pre-incubation); for TbrCatL Inhibition 0’ / TbrCatL Inhibition 10’: sheet Screening results; for TbrCatL Inhibition 10’: 10’ (pre-incubation); for TbrCatL 0’ Inhibition: 0’ (pre-incubation time); for TbrCatL 0’ Inhibition / TbrCatL 10’ Inhibition: sheet "Screening results"; for TbrCatL 10’ Inhibition: 10’ (pre-incubation time)
T1 construct: Conor Caffrey (University of California San Diego)
T1 sequence (Q95PM0 entry or part of it): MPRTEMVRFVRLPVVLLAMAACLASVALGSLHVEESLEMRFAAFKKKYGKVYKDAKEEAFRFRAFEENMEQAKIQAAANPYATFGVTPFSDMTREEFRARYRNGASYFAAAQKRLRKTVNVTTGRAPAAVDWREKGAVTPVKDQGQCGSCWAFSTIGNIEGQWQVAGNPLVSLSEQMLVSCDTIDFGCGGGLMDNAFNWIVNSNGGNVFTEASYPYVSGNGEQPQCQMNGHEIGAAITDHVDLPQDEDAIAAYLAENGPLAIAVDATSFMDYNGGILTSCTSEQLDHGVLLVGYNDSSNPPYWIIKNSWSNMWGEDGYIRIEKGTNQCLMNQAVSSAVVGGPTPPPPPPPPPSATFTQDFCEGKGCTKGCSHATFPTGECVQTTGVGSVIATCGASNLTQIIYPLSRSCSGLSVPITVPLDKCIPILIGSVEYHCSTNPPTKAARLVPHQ
Method: as §1, §2
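Further: at 5 µM compound concentration.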

Row | Compound | Cruzain Inhibition 0’ (cruzain) | Cruzain Inhibition 10’ (cruzain) | TbrCatL Inhibition 0’ (TbrCatL) | TbrCatL Inhibition 10’ (TbrCatL) | Cruzain 0’ Inhibition (cruzain) | Cruzain 10’ Inhibition (cruzain) | TbrCatL 0’ Inhibition (TbrCatL) | TbrCatL 10’ Inhibition (TbrCatL)
1 | Cc1ccc2c(c1C)NC(=O)C21NN=C(c2ccccc2)S1 (stereo not drawn) [MMV019189] | -17% | -22% | -21% | 14% | – | – | – | –
2 | COc1ccc(C2CC(c3cccs3)=NN2C(=O)c2ccco2)cc1OC (stereo not drawn) [MMV019234] | 6.6% | 8% | 7% | 22% | – | – | – | –
3 | CCC(NC(=O)c1ccccc1NC(=O)c1ccc(C)cc1)C(=O)OC (stereo not drawn) [MMV019551] | – | – | – | – | -0.5% | 1.2% | -0.4% | 3.2%
4 | CCN(CC)S(=O)(=O)c1ccc(Cl)c(C(=O)Nc2ccc3nc(C)sc3c2)c1 [MMV019721] | 6.4% | 6.4% | 5% | -2.6% | – | – | – | –
5 | Cc1ccc(S(=O)(=O)N2CCN(C(=O)c3cc(-c4ccccc4)n[nH]3)CC2)cc1 [MMV019742] | -5% | -3% | 3.5% | -2.5% | – | – | – | –
6 | CCOc1ccccc1C(=O)Nc1cccc(-c2nc3ncccn3c2C)c1 [MMV019790] | – | – | – | – | 3.2% | 4% | 8% | -0.3%
7 | Cc1ccc2cc(C3NC(=O)c4ccccc4N3)c(Cl)nc2c1 (stereo not drawn) [MMV019807] | 8% | 7% | 5% | 9% | – | – | – | –
8 | O=C(Nc1ccnc(-c2cccnc2)n1)c1cc(C(F)(F)F)cc(C(F)(F)F)c1 [MMV019838] | 2% | 16% | -8% | -5% | – | – | – | –
9 | Cc1nn(C)cc1C(C)Nc1nncc(-c2ccc(C(F)(F)F)cc2)n1 (stereo not drawn) [MMV019993] | – | – | – | – | -5% | -1.8% | 0.6% | -3.6%
10 | COc1cccc(CC(=O)N2CCC(n3c(C)nc4ccc(F)cc43)CC2)c1 [MMV020081] | – | – | – | – | 5% | 10% | 1.6% | 18%
11 | CC1CC1C(=O)NC1CCN(CC2(c3ccccc3)CCCCC2)CC1 (stereo not drawn) [MMV020120] | 1.3% | -0.5% | -2.3% | 3.8% | – | – | – | –
12 | CNC(=O)c1cc(S(=O)(=O)N2CCN(c3ccccn3)CC2)cs1 [MMV020136] | 5% | 2% | -6.4% | -5.6% | – | – | – | –
13 | Cc1cc(C(=O)Nc2ccc(-c3ccccc3)cc2)no1 [MMV020152] | 3.7% | -0.4% | -2% | 1.1% | – | – | – | –
14 | CC(C)NCC(=O)Nc1cccc(C(=O)Nc2cccc(C(F)(F)F)c2)c1 [MMV020165] | – | – | – | – | -1.7% | 12% | 1.8% | 5%
15 | Cc1ccc(NC(=O)c2cc(S(=O)(=O)NC(C)(C)C)ccc2C)nc1 [MMV020289] | – | – | – | – | 1% | 1.9% | 1.9% | 1.3%
16 | CC(C(=O)N1CCCC1)N1CCN(S(=O)(=O)c2ccc(C(C)(C)C)cc2)CC1 (stereo not drawn) [MMV020291] | – | – | – | – | 2.5% | 6% | 4.3% | 8%
17 | Cc1nnc(NC(=O)c2cn(-c3ccccc3)nc2-c2ccccc2C)o1 [MMV020320] | 4.5% | 2.2% | -0.2% | 4% | – | – | – | –
18 | COc1ccccc1C(C)NCC(=O)Nc1cc(C(F)(F)F)ccc1Cl (stereo not drawn) [MMV020321] | 0.3% | -0.8% | -9% | -10% | – | – | – | –
